System: Caco-2
Experiment: MTT antiproliferation assay
Type: cell-based, human
Conditions: Homo sapiens; Caco-2, MTT, 24 h, single agent, mean ± SEM
Method: The antiproliferation and cytotoxicity were assessed using 3-(4,5-dimethylthiazol-2-yl)-2,5-diphenyltetrazolium bromide (MTT, Serva) colorimetric assay. To investigate the antiproliferation, all cell lines were seeded at a density of 20,000 cells per well in 96-well plates and allowed to adhere overnight. […] These concentrations were prepared by diluting the stock solutions with serum-free culture media. The negative control cells were those treated with 0.1% DMSO solvent alone. The treated cells were handled in reduced light and maintained under standard culture growth conditions for 24 h. After the incubation period, MTT powder was prepared as a stock solution (5 mg/mL) and 20 μL of the MTT working reagent (final concentration 0.5 mg/mL) was added to each well. This was followed by incubation with MTT reagent for 4 h in a humidified atmosphere (37 °C, 5% CO2) with subsequent addition of 150 μL of DMSO solubilizing solvent and incubation for 20 min. The absorbance of solubilized violet formazan crystals was measured at 540 nm with Biotek 800 TS microplate reader. IC50 was calculated as the concentration of retinoid that produced 50% cell growth inhibition. For cytotoxicity assessment, WI-38 normal human fibroblast cells were used for the calculation of SI which is the ratio of IC50 retinoid (WI-38)/IC50 retinoid (cancer cell line).

`O=c1[nH]cc(F)c(=O)[nH]1` [5-FU, 5-fluorouracil, reference compound] showed an IC50 of 18.4 ± 0.6 µM.
